Data published in US6833262B1 (priority 1999, dated 2004).
Like-named read-outs stand apart in the source and are kept apart here. Peptide text beside a SMILES is read from it.

Experiments:
periodontain [1] = test: Activation of periodontain by reducing agents and additives; type: biochemical, Porphyromonas gingivalis; settings: for Periodontain activity achieved with reducing agent: reducing agent at 0.1 mM concentration
Kgp = Kgp (Porphyromonas gingivalis, UniProt B2RLK2); settings: cited from earlier work
periodontain [2] = type: biochemical, Porphyromonas gingivalis
Rgp's = settings: cited from earlier work
[3] = system: human α1-proteinase inhibitor

## O[C@H](CS)[C@H](O)CS (racemic) [DTT, dithiothreitol]
Periodontain [1]
  Periodontain activity achieved with reducing agent: full activity

## CC(C)C[C@H](NC(=O)[C@H]1O[C@@H]1C(=O)O)C(=O)NCCCCN=C(N)N (relative stereo) [E-64, L-trans-epoxysuccinyl-leucylamide-(4-guanidino)-butane]
Kgp
  Inhibition of Kgp: not inhibited
Periodontain [2]
  Inhibition of periodontain (in words): readily inhibited
Periodontain [2]; 100 µM
  Percent Inhibition: 100%
Rgp's
  Inhibition of Rgp's: only weakly inhibited

## O=c1oc(Cl)c(Cl)c2ccccc12 [Dichloroisocoumarin, 3,4 dichloroisocoumarin]
Periodontain [2]
  Inhibition of periodontain (in words): readily inhibited
  Percent Inhibition: 2%

## NC(=O)CI [Idoacetamide]
Periodontain [2]
  Inhibition of periodontain (in words): readily inhibited
  Percent Inhibition: 100%

## CC(=O)N[C@@H](CC(C)C)C(=O)N[C@@H](CC(C)C)C(=O)N[C@H](C=O)CCCNC(=N)N [Leupeptin]
Periodontain [2]
  Inhibition of periodontain (in words): readily inhibited
Periodontain [2]; 50 µM
  Percent Inhibition: 88%

## NC(N)=NCCC[C@H](NC(=O)[C@@H]1CCCN1C(=O)[C@H](N)Cc1ccccc1)C(=O)CCl [Phe—Pro—Arg chloromethyl ketone, Phe-Pro-Arg chloromethyl ketone]
Periodontain [2]
  Inhibition of periodontain (in words): readily inhibited
Periodontain [2]; 10 µM
  Percent Inhibition: 96%

## NCCCC[C@H](NC(=O)[C@H](Cc1ccccc1)NC(=O)OCc1ccccc1)C(=O)COC(=O)c1ccccc1 [Z-Phe—Lys benzoyloxy methyl ketone, Z-Phe-Lys benzoyloxy methyl ketone]
Periodontain [2]
  Inhibition of periodontain (in words): readily inhibited
Periodontain [2]; 10 µM
  Percent Inhibition: 99%

## N[C@@H](CS)C(=O)O [free cysteine, cysteine]
Periodontain [1]
  Periodontain activity achieved with reducing agent: full activity

## NCC(=O)NCC(=O)O [glycyl-glycine] (H-Gly-Gly-OH)
Periodontain [1]; data not shown
  Stimulation of periodontain activity: did not stimulate activity

## OCCS [β-mercaptoethanol]
Periodontain [1]
  Periodontain activity achieved with reducing agent: full activity

## Tosyl-L-lysine chloromethyl ketone
Periodontain [2]
  Inhibition of periodontain (in words): readily inhibited
  Percent Inhibition: 91%

## calcium ions
Periodontain [1]; data not shown
  Stabilizing effect on periodontain: did not have a stabilizing effect

## ethylenediaminetetra-acetate [EDTA]
Periodontain [2]
  Percent Inhibition: 0%

## periodontain (mature native heterodimer purified from P. gingivalis HG66 culture fluid)
[3]
  Specific Activity (α1-PI inactivation assay, final TSK gel filtration step): 368 units/mg
Phe-Leu-Glu-pNA
  hydrolysis of a synthetic pNA substrate: no hydrolysis was detected
